Source: article PMC7901650, “Garcinoic Acid Is a Natural and Selective Agonist of Pregnane X Receptor” (Journal of Medicinal Chemistry, 2020)

What was measured:
hPXR = molecular target: T1, hPXR (Homo sapiens, UniProt O75469); test: AlphaScreen coactivator recruitment assay, PXR; type: biochemical; details: 10 μM compound concentration
T1 construct: GST-LBD
T1 sequence (O75469 146-433 limits assumed): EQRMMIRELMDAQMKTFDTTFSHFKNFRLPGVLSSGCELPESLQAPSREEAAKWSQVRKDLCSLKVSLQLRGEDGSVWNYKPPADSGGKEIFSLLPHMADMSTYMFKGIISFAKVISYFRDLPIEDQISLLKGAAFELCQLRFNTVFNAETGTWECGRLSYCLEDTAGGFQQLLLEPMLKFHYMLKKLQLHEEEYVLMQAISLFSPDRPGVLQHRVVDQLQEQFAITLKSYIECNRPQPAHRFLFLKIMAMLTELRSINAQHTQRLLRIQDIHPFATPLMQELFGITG

[1] = molecular target: T2, hPXR ligand binding domain (LBD) (Homo sapiens, UniProt O75469); test: Isothermal titration calorimetry, binding to His-tagged hPXR LBD; details: ITC, 37 °C, pH 7.5
T2 construct: made in house; host or cells: E. coli BL21-Gold
T2 sequence (O75469 146-433 limits assumed): T1 sequence (O75469 146-433 limits assumed)
Text: To obtain direct proof of interaction with the hPXR ligand binding domain (LBD), we performed an isothermic titration calorimetry (ITC) experiment using His-tagged hPXR LBD protein in solution (Figure 1C). ITC measures the affinity, Ka, the Gibbs energy (ΔG = −RT ln Ka), and the changes in enthalpy, ΔH, and entropy, ΔS, associated with the binding of the FKK compounds (ΔG = −RT ln K = ΔH – TΔS). Enthalpic and entropic contributions to binding affinity define the nature of the forces that drive the binding reaction.[40],[41]
ITC was performed using a VP-ITC microcalorimeter from MicroCal/Malvern Instruments (Northampton, MA). The protein and the ligands (in DMSO, 8% vol/vol final concentration) were prepared in 25 mM Hepes, pH 7.5 with 150 mM NaCl. In all of the experiments, the ligand solution was injected in 10-μL aliquots into the calorimetric cell containing PXR-LBD [3 μM] at 37 °C. The respective concentrations of GA (1), 2, and 5 in the syringe were 60 μM each. The heat evolved upon each injection of the ligands was obtained from the integral of the calorimetric signal. The heat associated with binding to PXR-LBD in the cell was obtained by subtracting the heat of dilution from the heat of reaction.

PXR = test: PXR, CYP3A4 (CYP3A11) expression in mouse liver and intestine after single bolus; type: in vivo; details: 24 h post-treatment
recombinant human Pgp = molecular target: T3, recombinant human Pgp (Homo sapiens, UniProt P08183); test: P-glycoprotein activity assay (Pgp-Glo); type: biochemical; details: 50 nM to 25 μM
T3 construct: purchased Promega
T3 sequence (P08183 whole entry): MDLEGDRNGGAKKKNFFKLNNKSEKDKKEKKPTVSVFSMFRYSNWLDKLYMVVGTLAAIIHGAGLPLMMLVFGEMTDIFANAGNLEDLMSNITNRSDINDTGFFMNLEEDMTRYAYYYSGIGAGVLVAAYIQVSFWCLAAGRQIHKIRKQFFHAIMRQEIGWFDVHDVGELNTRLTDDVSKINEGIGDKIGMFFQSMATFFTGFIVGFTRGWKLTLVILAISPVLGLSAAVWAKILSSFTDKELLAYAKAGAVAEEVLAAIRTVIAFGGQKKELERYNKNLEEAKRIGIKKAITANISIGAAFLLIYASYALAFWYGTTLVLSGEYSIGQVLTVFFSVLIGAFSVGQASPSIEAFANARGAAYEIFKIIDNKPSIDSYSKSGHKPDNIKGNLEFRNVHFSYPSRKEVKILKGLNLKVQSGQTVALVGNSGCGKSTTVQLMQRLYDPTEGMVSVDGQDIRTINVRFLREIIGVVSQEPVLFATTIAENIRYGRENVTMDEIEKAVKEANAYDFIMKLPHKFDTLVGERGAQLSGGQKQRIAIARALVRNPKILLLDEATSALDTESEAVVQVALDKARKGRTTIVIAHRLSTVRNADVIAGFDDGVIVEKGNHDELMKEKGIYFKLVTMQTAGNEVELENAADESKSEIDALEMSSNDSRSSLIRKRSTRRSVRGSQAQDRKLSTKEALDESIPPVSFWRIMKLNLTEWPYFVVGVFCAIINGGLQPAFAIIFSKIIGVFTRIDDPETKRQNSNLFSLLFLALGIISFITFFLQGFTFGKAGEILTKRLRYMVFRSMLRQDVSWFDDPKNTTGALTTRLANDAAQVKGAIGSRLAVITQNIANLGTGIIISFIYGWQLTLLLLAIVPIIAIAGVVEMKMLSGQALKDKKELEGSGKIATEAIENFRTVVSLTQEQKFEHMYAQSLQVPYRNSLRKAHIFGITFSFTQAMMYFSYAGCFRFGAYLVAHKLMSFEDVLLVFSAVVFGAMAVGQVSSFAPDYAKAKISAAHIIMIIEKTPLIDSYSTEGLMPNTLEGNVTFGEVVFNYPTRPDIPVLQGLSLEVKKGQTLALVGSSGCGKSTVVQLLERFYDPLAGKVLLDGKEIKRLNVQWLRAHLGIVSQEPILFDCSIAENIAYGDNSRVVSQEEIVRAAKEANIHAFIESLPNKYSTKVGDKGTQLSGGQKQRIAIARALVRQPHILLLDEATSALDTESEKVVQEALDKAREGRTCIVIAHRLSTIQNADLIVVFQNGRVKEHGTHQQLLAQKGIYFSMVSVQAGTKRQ
Text: To evaluate the effects of GA on recombinant human Pgp in a cell membrane fraction, we used the Pgp-Glo assay system (Promega, Madison, WI), according to the manufacturer’s instruction. The assay relies on the ATP dependence of the light-generating reaction of firefly luciferase.

FXR = molecular target: T4, FXR (Homo sapiens, UniProt Q96RI1); test: AlphaScreen nuclear receptor panel, FXR; type: biochemical
T4 construct: GST-LBD
T4 sequence (Q96RI1 262-486 limits assumed): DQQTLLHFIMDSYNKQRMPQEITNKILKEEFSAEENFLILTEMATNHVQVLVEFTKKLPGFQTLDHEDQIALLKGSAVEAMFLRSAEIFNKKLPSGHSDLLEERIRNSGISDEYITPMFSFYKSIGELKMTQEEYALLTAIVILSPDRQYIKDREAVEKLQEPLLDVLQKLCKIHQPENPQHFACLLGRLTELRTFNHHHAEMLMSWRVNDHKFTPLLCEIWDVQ
Text: Ligand binding activity of GA (1) was explored via AlphaScreen technology over a panel of NRs that, along with hPXR (Figure 1A), included major human endocrine and metabolic receptors, such as the retinoid X receptor (RXR), constitutive androstane receptor (CAR), farnesoid X receptor (FXR), vitamin D receptor (VDR), liver X receptor (LXR) forms α and β, and the PPAR isoforms α, δ, and γ (see Figure S1). GA (1) was compared to its analogue δ-tocotrienol (5), the vitamers 3 and 4, their short-chain metabolites (SCMs) α-CEHC (10) and γ-CEHC (11), and the LCMs 2 and 8 (Chart 1). The test was performed in the presence of reference standard agonists for the different NRs.
The activity of nuclear receptors was determined using AlphaScreen technology, a recruitment coactivator assay previously described.[56]
(A) The test was carried out at 10 μM compound final concentration. Ligand binding to nuclear receptors was expressed as luminescence units. […] Vehicle was assessed to obtain a measure of background signal (basal evaluation). […] In presence of the ligand, the nuclear receptor LBD undergoes conformational changes, binds to the coactivator and the chemical energy is transferred from donor to acceptor beads in order to produce a signal, i.e. luminescence; in this case the compounds behaves as agonist, changing the conformation of the receptor to recruit the coactivator. […]

## C/C(=C\CC/C(C)=C/CC[C@]1(C)CCc2cc(O)cc(C)c2O1)CC/C=C(\C)C(=O)O [GA (1), (2E,6E,10E)-13-[(2R)-6-hydroxy-2,8-dimethyl-chroman-2-yl]-2,6,10-trimethyltrideca-2,6,10-trienoic acid]
hPXR
  PXR agonist activity (AlphaScreen, single concentration): significant PXR agonist activity
[1]
  N (stoichiometry): 0.9
  ΔG: -8.8 kcal/mol
  ΔH: -6.4 kcal/mol
  −TΔS: -2.4 kcal/mol
[1]; listed as 1
  ΔG: -8.8 kcal/mol
  ΔH: -6.4 kcal/mol
PXR; 5 to 25 mg single bolus
  CYP3A4 (CYP3A11 in mice) protein expression in liver and intestine: increased
PXR; mice, 5 to 25 mg single bolus
  PXR mRNA in intestine: increased
  PXR protein and mRNA in liver tissue: dose-dependent stimulation effect
PXR; mice, single bolus
  PXR protein expression in intestine: not sufficient to significantly increase PXR protein expression
Recombinant human Pgp
  P-glycoprotein (MDR1) activity: increased in a dose–dose-dependent manner
FXR
  Response on FXR: No response
